This is an account of results in US20220163532A1, “NUCLEAR-DERIVED EXOSOMES AND METHODS OF USE THEREOF” (Board of Regents, The University of Texas System, priority 2019, published 2022).

One assay concerns ovarian cancer cells. The assay can be described thus: Nuclear proteins in exosomes from drug-treated ovarian cancer cells (Western blot). Format: cell-based, human. Particulars: topotecan 10 nM or olaparib 20 μM. The protocol: (§1) Isolation of exosomes. The isolation method for exosomes that was used in this study followed the standard methods of the International Society of Extracellular Vesicles (Witwer et al., 2013). Cell lines described above were grown in the corresponding medium described above until 60 to 70% confluence was achieved. Cells were then washed twice with phosphate-buffered saline (PBS) and grown in corresponding medium containing 1% exosome-free FBS (EXO-FBS-250A-1, System Biosciences) plus 0.1% gentamicin for 48 hours. For exosome isolation, the harvested medium underwent serial centrifugation. First, the medium was spun down at 500g for 10 min to pellet any floating cells. Next, the supernatant was collected and spun down at 2000g for 30 min to pellet any residual cell debris. The resulting supernatant was then filtered through a 0.22-μm filter (SCGPUO5RE and SLGP033RS, Millipore-Sigma) to remove any remaining large vesicles. After filtration, the medium was spun down at 40,000 rpm for 2 hours at 4° C. in an ultracentrifuge (Optima XE, Beckman Coulter) with a Ti 45 fixed-angle rotor (339160, Beckman Coulter). […] Exosome concentration and quantity were determined using NTA with a NanoSight NS300 instrument (Malvern Panalytical).
Western blotting. […] Protein concentration was determined using the Micro BCA Protein Assay Kit (23235, Thermo Fisher Scientific) according to the manufacturer's protocol. […]

The subject of assay [1] is OVCAR-5 and OVCAR-8 cells. The assay can be described thus: DNA-positive exosomes (nExo) from drug-treated ovarian cancer cells by imaging flow cytometry. The note with it: topotecan 10 nM or olaparib 20 μM, parental cells treated 48 hours, vs DMSO. The class given is cell-based, human. As for the experimental part:
as §1, with “vesicles.” for “vesicles. After filtration, the medium was spun down at 40,000 rpm for 2 hours at 4° C. in an ultracentrifuge (Optima XE, Beckman Coulter) with a Ti 45 fixed-angle rotor (339160, Beckman Coulter).”
Exosome staining for imaging flow cytometry and analysis. For quantitative analysis and imaging flow cytometry of exosomes, the method described by Erdbrugger et al. (2014) using an Amnis ImageStreamX MarkII analyzer was adapted. […]

In the case of `CC[C@@]1(O)C(=O)OCc2c1cc1n(c2=O)Cc2cc3c(CN(C)C)c(O)ccc3nc2-1` [topotecan], the “population of exosomes containing nuclear proteins” value in the assay with ovarian cancer cells is recorded as “increased”. Moreover, the “population of exosomes containing gDNA (proportion of nExo secreted)” value in assay [1] is reported as “increased”.
